Each structure is given as a SMILES string.

For assay [1], the system named is Adjuvant-Induced Arthritis in Rats. The assay is described as follows: Established adjuvant-induced arthritis in rats (antiinflammatory activity, paw volume). It counts as in vivo, Charles River Lewis male rats. To be noted: oral by gavage, that day and 6 following days; for AA % Reduction @ 27 mg/kg: % reduction in paw volume at 27 mg/kg, * p <0.05 (Examples 2, 3, 6), ** p >0.1 (Example 9) compared to control. As for the experimental part:
A procedure for detecting and comparing the antiinflammatory activity of compounds in this series and standard drugs for which there is a good correlation with human efficacy is the adjuvant-induced arthritis test in rats.
Charles River Lewis male rats (130-150 grams) are injected subcutaneously in plantar area of the right hind paw with 0.1 ml of adjuvant (Difco heat-killed, lyophilized Mycobacterium butyricum suspended in mineral oil 5 mg/ml). 20 Non-arthritic controls are injected with mineral oil. The animals are held for 2 weeks to allow development of arthritis. Paw volumes (uninjected, left hind paw) are measured and the adjuvant injected rats are culled and distributed to treatment groups of 10 of equal disease severity. Non-arthritic controls are distributed to 2 groups of 10. The rats are given oral doses of compound or PVA-Acacia (Polyvinyl Alcohol 1%, Gum Acacia, U.S.P. 5%, Methylparaben 0.5%) (10 ml/kg) by gavage on that day and on the 6 following days. One day after the last dose the paw volumes (uninjected, left hind paw) are measured using a Ugo Basile Volume Differential Meter Model 7101. [formula]
Dose-response regression lines of the % decrease are plotted on semi-log paper by visual fit and the ED50% decrease from control paw volume is determined by inspection. Alternatively, % reduction in paw volume was measured at a dose of 27 mg/kg.

Another assay concerns phenylquinone writhing. Description: Phenylquinone writhing test (analgesic activity). The settings on record: Mus musculus; oral in 1% methylcellulose, fasted mice, observed from 30 minutes after dosing for 10 minutes; effective analgesic dose for 50% of the mice; read-out: PQW ED50. It counts as in vivo, female white mice. As for the experimental part: A procedure for detecting and comparing the analgesic activity of compounds in this series and standard drugs for which there is a good correlation with human efficacy is the phenylquinone writhing test.
The phenylquinone writhing test, modified from Siegmund, et al., Proc. Soc. Exp. Biol. Med. 95, 729 (1957), was employed. A test compound suspended in 1% methylcellulose was given orally to fasted (17-21 hours) female white mice, 5-20 animals per double blind test. Aqueous (0.01% phenyl-p-benzoquinone) phenylquinone was injected intraperitoneally 24 minutes later using 0.20 ml per mouse. […] The effective analgesic dose for 50% of the mice (ED50) was calculated by the moving average method of Thompson, W. R., Bact. Rev., 11, 115-145 (1947).
(An intraperitoneal irritant provokes the stretching counted in writhing tests.)

Regarding `COc1ccc(-c2cnc(SC(F)(F)C(F)F)nc2-c2ccc(OC)cc2)cc1` [Example 1, 2-(1,1,2,2-Tetrafluoroethylthio)-4,5-bis(4-methoxyphenyl)pyrimidine], the 50% effective dose (ED50) (usually the midpoint of the dose-response relation) is 25 mg/kg in assay [1] (Rattus norvegicus, ED50% decrease from control paw volume, uninjected left hind paw, read-out: AA ED50) and more than 108 mg/kg in the assay on phenylquinone writhing.
With `Fc1ccc(-c2cnc(SC(F)(F)F)nc2-c2ccc(F)cc2)cc1` [Example 2, 2-Trifluoromethylthio-4,5-bis(4-fluorophenyl)-pyrimidine], the “AA % Reduction @ 27 mg/kg” value in assay [1] is given as 37%. In addition, the median effective dose (ED50) in the assay with phenylquinone writhing is more than 108 mg/kg.
For `COc1ccc(-c2nc(SC)ncc2-c2ccc(Cl)cc2)cc1` [Example 3, 2-Methylthio-4-(4-methoxyphenyl)-5-(4-chlorophenyl)-pyrimidine], in that order: 39% and more than 108 mg/kg.
As to `Fc1ccc(-c2cnc(SC(F)(F)C(F)F)nc2-c2ccc(F)cc2)cc1` [Example 4], the “AA % Reduction @ 27 mg/kg” value in assay [1] came out at 0%. Besides, the ED50 with phenylquinone writhing was 45 mg/kg.
Taken in the same sequence, the figures for `COc1ccc(-c2cnc(SC(F)(F)F)nc2-c2ccc(OC)cc2)cc1` [Example 6] were 32% and 48 mg/kg.
Taken in the same sequence, the figures for `COc1ccc(-c2nc(SC(F)(F)F)ncc2-c2ccc(Cl)cc2)cc1` [Example 7] were 0% and 49 mg/kg.
As for `COc1ccc(-c2cnc(SC)nc2-c2ccc(OC)cc2)cc1` [Example 9], the “AA % Reduction @ 27 mg/kg” value in assay [1] is on record as 16%. Moreover, in the assay on phenylquinone writhing, the ED50 came out at 108 mg/kg.
